This note sets out measurements from BindingDB's records for doi:10.1016/j.bmcl.2006.01.126 (Amgen, 2006).

This assay is described as follows: Inhibition of TARC-mediated CEM cell migration.

One may read the IC50 as the concentration at which inhibition is half-maximal. A low value points to greater potency. As for `c1ccc2c(Nc3nc(CN(CC4CCCCC4)CC4CCCCC4)cs3)cccc2c1` [4-((bis(cyclohexylmethyl)amino)methyl)-N-(naphthalen-1-yl)thiazol-2-amine], the 50% inhibitory concentration (IC50) was determined as 0.53 µM.
The compound `Cc1csc(Nc2cccc3ccccc23)n1` [4-methyl-N-(naphthalen-1-yl)thiazol-2-amine] displayed an IC50 of 6.4 µM.
